# Results: patent publication US9663429B2, “Vitamin D analogues of pharmaceutical interest” (UNIVERSIDADE DE SANTIAGO DE COMPOSTELA, priority 2013, dated 2017)
# “Also recorded” adds a separate entry of the source.
# Key:
# [1] = Body weight of mice in the dose-response assay; assay type: in vivo
# Description: FIG. 10. […] 1,25D (dose of 0.3 μg/kg) and analogues (doses of 0.1, 0.5, 1 and 5 μg/kg) were injected intraperitoneally every 2 days for 21 days. Animals were weighed every two days during treatment. The values were represented as mean±SD in […].
# In this experiment, also the weight of the animals was quantified to determine whether there was any modification throughout the treatment.
# [2] = Calcaemic effects in mice at 0.3 μg/kg; assay type: in vivo; conditions: for Calcaemic activity: blood calcium in percentage over that induced by 1,25D: ip every two days for 21 days, 0.3 μg/kg (table title prints 0.3 mg/kg); for Hypercalcemia (serum calcium versus control): 0.3 μg/Kg ip every 2 days for 21 days
# Description: FIG. 8. […] 1,25D and the various analogues were injected intraperitoneally every 2 days for 21 days at a dose of 0.3 μg/Kg. After treatment the calcium levels in the serum were evaluated and the values were represented as mean±SD in […].
# (§1) Calcium mobilization of analogues was determined in 28 male CD-1 mice (6-8 weeks old). 6 Groups of 4 mice each were established, which mice were intraperitoneally (ip) injected with 0.3 μg/kg weight of each analogue or 1,25D dissolved in sesame oil every two days for 3 weeks. A seventh group of 4 mice treated with the carrier (sesame oil) served as controls. Calcium levels in blood were determined by QuantiChomCalciumAssay Kit (BioAssaySystems, Hayward, Calif., USA). In addition, a dose-response assay was performed to assess the effect of administration of the analogues PG-403 and PG136p and hormone (1,25D) at different doses on calcium levels. This assay was performed in male mice (5 mice per group), and the doses used were: 0.1, 0.5, 1, and 5 μg/kg weight of each analogue or 1,25D, i.p. administered every two days for 21 days. In addition, a control group (mice treated with sesame oil) was used.
# [3] = Dose-response assay of serum calcium in mice; assay type: in vivo
# Description: FIG. 9. […] 1,25D (dose of 0.3 μg/kg) and analogues (doses of 0.1, 0.5, 1 and 5 μg/kg) were injected intraperitoneally every 2 days for 21 days. After treatment the calcium levels in the serum were evaluated and the values were represented as mean±SD in […].
# as §1
# HaCaT cells = test: MTT proliferation assay, HaCaT; conditions: 10^−7 M, 48 hours, 100% control cells
# Description: Proliferation assay in the HaCaT cell line of human keratinocytes. […] The values were plotted in the graphs as mean±SD. As proliferation value, 100% was considered the normal growth of HaCaT cells treated with the carrier in the control.
# (§2) The cells were cultured in 90-mm plates in essential culture medium DMEM, supplemented with 10% bovine foetal serum free of steroid hormones, 100 U/ml penicillin, 100 μg/ml streptomycin and 2 mM non-essential amino acids (L-glutamine) at 37° C. in a humid atmosphere O2/CO2 (95/5%).
# (§3) The first is an indirect method for determining living cells, wherein the yellow water soluble MTT is reduced in mitochondria, thus generating a purple insoluble product (formazan). […] After this time, the culture medium was removed and 500 μl of dimethylsulfoxide (DMSO) was added to each well to solubilise the formazan incorporated by the cells.
# vitamin D receptor (VDR) = target: T1, vitamin D receptor (VDR) (Homo sapiens, UniProt P11473); test: Competitive binding to vitamin D receptor (Polarscreen VDR competitor assay, fluorescence polarisation); conditions: for Binding to VDR % relative to 1,25D (100%): activity relative to natural hormone 1,25D normalised at 100%; for IC50: competitive displacement, 10^−11 to 10^−5 M
# T1 construct: purchased Invitrogen
# T1 sequence (P11473 1-427): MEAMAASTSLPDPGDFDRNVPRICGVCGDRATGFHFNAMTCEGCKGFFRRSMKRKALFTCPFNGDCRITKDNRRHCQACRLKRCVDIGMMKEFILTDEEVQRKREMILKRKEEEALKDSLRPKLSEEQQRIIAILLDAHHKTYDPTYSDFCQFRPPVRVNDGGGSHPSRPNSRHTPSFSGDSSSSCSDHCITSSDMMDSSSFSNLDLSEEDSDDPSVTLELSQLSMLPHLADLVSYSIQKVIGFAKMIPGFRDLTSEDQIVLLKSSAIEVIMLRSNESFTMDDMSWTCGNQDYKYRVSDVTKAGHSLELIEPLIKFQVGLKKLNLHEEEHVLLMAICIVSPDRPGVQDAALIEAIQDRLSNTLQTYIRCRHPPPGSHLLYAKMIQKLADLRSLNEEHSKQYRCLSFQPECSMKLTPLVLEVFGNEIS
# Description: FIG. 1. […] The values represent the mean of at least two experiments.
# Polarised fluorescence was determined in 384-well black plates for 200 ms/well using a Mithras LB 940 device (Berthold Technologies).
# [4] = test system: 24-hydroxylase promoter, CYP24A1 (pCYP24A1-Luc); test: Transactivation reporter assay (pCYP24A1-Luc) in MCF-7 cells; conditions: for EC50: Homo sapiens, MCF7, 24 h, read-out: Transcriptional activity EC50; for Transcriptional activity % relative to 1,25D (100%): MCF-7 cells, pCYP24A1-Luc
# Description: MCF-7 cells were transfected with the reporter vector of 24-hydroxylase (pCYP24A1-Luc vector) for 24 hours. […] The experiments were performed at least twice. The error bars represent the standard deviation (SD).
# SKOV-3 cells = test: MTT proliferation assay, SKOV-3; conditions: 10^−7 M, 48 hours, 100% control cells
# Description: Proliferation assay in the SKOV-3 cell line of human ovary adenocarcinoma. […] The values were plotted in the graphs as mean±SD. As proliferation value, 100% was considered the normal growth of SKOV-3 cells treated with the carrier in the control.
# as §2, §3
# MCF-7 cells [5] = test: 3D cell culture on matrigel (spheroid size), MCF-7; assay type: cell-based, human; conditions: for Cell proliferation percentage MCF-7 3D: 10^−7 M, matrigel spheroids, 100% control cells
# Description: FIG. 7. MCF-7 cells were shown for 10 days on a matrigel bed until they formed a 3D cellular structure. […] After treatment, the spheroids were stained with DAPI (4′,6-diamino-2-phenylindole) for 1 hour and photographed under an inverted microscope with ultraviolet light. The size of these spheroids was measured and the values were represented as mean±SD in relative units. […] Those cells treated with the carrier were considered as the control value.
# For 3D cell culture, a cushion of 200 μl of Matrigel (BD Biosciences) was used in each of the wells of multi-well plates of 24 wells. They were incubated at 37° C. for 20 minutes for their solidification and subsequently the cell suspension (5×10^3 cells per 100 μl volume of medium) was loaded onto the matrigel solidified and another incubation at 37° C. was performed for 30 minutes so that the cells penetrated properly on the matrigel base. 500 μl of DMEM medium were added to each well, and the cells were maintained in culture for 10 days. At the end of this time, the cells were started to be treated with each of the 5 analogues used and 1,25D.
# PC-3 cells = test: MTT proliferation assay, PC-3; conditions: 10^−7 M, 48 hours, 100% control cells
# Description: Proliferation assay in the PC-3 cell line of human prostate adenocarcinoma. […] The values were plotted in the graphs as mean±SD. As proliferation value, 100% was considered the normal growth of PC-3 cells treated with the carrier in the control.
# as §2, §3
# MCF-7 cells [6] = test: MTT proliferation assay, MCF-7; conditions: 10^−7 M, 48 hours, 100% control cells
# Description: Proliferation assay in the MCF-7 cell line of human breast adenocarcinoma. […] The values were plotted in the graphs as mean±SD. As proliferation value, 100% was considered the normal growth of MCF-7 cells treated with the carrier in the control.
# as §2
# Cell proliferation/toxicity in breast cancer lines was assessed by both incorporation assays of 3-(4,5-dimethylthiazol-2-yl)-2,5-difeniltetrazolium (MTT) bromide and cell culture in three dimensions (3D).
# as §3
SMILES,"Calcaemic activity: blood calcium in percentage over that induced by 1,25D [2] [%]","Binding to VDR % relative to 1,25D (100%) (vitamin D receptor (VDR)) [%]",IC50 (vitamin D receptor (VDR)) [nM],EC50 [4] [nM],Hypercalcemia (serum calcium versus control) [2],"Body weight, 1,25D ([1]; mice, 0.5 μg/kg weight ip every two days for 21 days)","Blood calcium ([2]; 0.3 μg/kg ip every two days for 3 weeks, carrier 11.9±0.7) [mg/dL]","Serum calcium versus controls, 1,25D ([3]; 0.5 μg/kg weight ip every two days for 21 days)",Cell proliferation percentage HaCaT 2D (HaCaT cells) [%],"Transcriptional activity % relative to 1,25D (100%) [4] [%]",Cell proliferation percentage SKOV-3 2D (SKOV-3 cells) [%],Cell proliferation percentage MCF-7 3D (MCF-7 cells [5]) [%],Cell proliferation percentage PC-3 2D (PC-3 cells) [%],Cell proliferation percentage MCF-7 2D (MCF-7 cells [6]) [%],"Body weight versus control animals, analogues ([1]; mice, 0.1, 0.5, 1 and 5 μg/kg ip every 2 days for 21 days)",Three-dimensional growth of MCF-7 spheroids (in words) (MCF-7 cells [5]; 10^−7 M for 7 days),Serum calcium versus control animals (placebo) ([3]; 5 μg/kg weight ip every two days for 21 days),"Serum calcium versus controls, analogues ([3]; doses 0.1, 0.5, 1 and 5 μg/kg ip every 2 days for 21 days)"
"C=C1/C(=C\C=C2/CCC[C@]3(C)[C@@H]([C@H](C)CCCC(C)(C)O)CC[C@@H]23)C[C@@H](O)C[C@@H]1O [1,25D, 1,25-dihydroxyvitamin D3, reference compound]",100,,,,,produced a significant decrease in the weight of the animals,14.7 ± 0.58,induces a significant increase in serum calcium,,,,,,,,,,
"C=C1/C(=C\C=C(/CCCC)c2cccc(CCCCCC(C)(C)O)c2)C[C@@H](O)C[C@@H]1O [PG-128, (1R,3S,Z)-5-((E)-3-(3-(6-hydroxy-6-methylheptyl)phenyl)hept-2-enyliden)-4-methylenecyclohexane-1,3-diol]",34,12,13.6,10,does not produce hypercalcemia,,,,71,20,81,84,84,74,,,,
"C=C1/C(=C\C=C(/CCCCCCC)c2cccc(CCCCCC(C)(C)O)c2)C[C@@H](O)C[C@@H]1O [PG-403, (1R,3S,Z)-5-((E)-3-(3-(6-hydroxy-6-methylheptyl)phenyl)dec-2-enyliden)-4-methylenecyclohexane-1,3-diol]",0,7,23.5,34.6,does not produce hypercalcemia,,,,71,6,83,55,79,69,does not change the body weight; also recorded: did not significantly affect the body weight,"inhibit the three-dimensional growth, similarly to 1,25D",did not significantly raise serum calcium,does not produce hypercalcemia; also recorded: None of the two analogues tested (PG136p and PG-403) induces increased serum calcium

# The remaining compounds from weak to strong by EC50 [4], led by results:
"Calcaemic activity: blood calcium in percentage over that induced by 1,25D [2] [%]","Binding to VDR % relative to 1,25D (100%) (vitamin D receptor (VDR)) [%]",IC50 (vitamin D receptor (VDR)) [nM],EC50 [4] [nM],Hypercalcemia (serum calcium versus control) [2],SMILES,"Body weight, 1,25D ([1]; mice, 0.5 μg/kg weight ip every two days for 21 days)","Blood calcium ([2]; 0.3 μg/kg ip every two days for 3 weeks, carrier 11.9±0.7) [mg/dL]","Serum calcium versus controls, 1,25D ([3]; 0.5 μg/kg weight ip every two days for 21 days)",Cell proliferation percentage HaCaT 2D (HaCaT cells) [%],"Transcriptional activity % relative to 1,25D (100%) [4] [%]",Cell proliferation percentage SKOV-3 2D (SKOV-3 cells) [%],Cell proliferation percentage MCF-7 3D (MCF-7 cells [5]) [%],Cell proliferation percentage PC-3 2D (PC-3 cells) [%],Cell proliferation percentage MCF-7 2D (MCF-7 cells [6]) [%],"Body weight versus control animals, analogues ([1]; mice, 0.1, 0.5, 1 and 5 μg/kg ip every 2 days for 21 days)",Three-dimensional growth of MCF-7 spheroids (in words) (MCF-7 cells [5]; 10^−7 M for 7 days),Serum calcium versus control animals (placebo) ([3]; 5 μg/kg weight ip every two days for 21 days),"Serum calcium versus controls, analogues ([3]; doses 0.1, 0.5, 1 and 5 μg/kg ip every 2 days for 21 days)"
0,9,18.4,11.4,does not produce hypercalcemia,"C=C1/C(=C\C=C(/CCCCCC)c2cccc(CCCCCC(C)(C)O)c2)C[C@@H](O)C[C@@H]1O [PG-156, (1R,3S,Z)-5-((E)-3-(3-(6-hydroxy-6-methylheptyl)phenyl)non-2-enyliden)-4-methylenecyclohexane-1,3-diol]",,,,74,17,76,79,80,78,,,,
41,10,17.6,9.27,does not produce hypercalcemia,"C=C1/C(=C\C=C(/CCC)c2cccc(CCCCCC(C)(C)O)c2)C[C@@H](O)C[C@@H]1O [PG-152, (1R,3S,Z)-5-((E)-3-(3-(6-hydroxy-6-methylheptyl)phenyl)hex-2-enyliden)-4-methylenecyclohexane-1,3-diol]",,,,71,21,82,74,83,69,,,,
9,,,5.6,does not produce hypercalcemia,"C=C1/C(=C\C=C(/CCCCCC(C)(C)O)c2cccc(CCCCCC(C)(C)O)c2)C[C@@H](O)C[C@@H]1O [PG-385, (1R,3S,Z)-5-((E)-9-hydroxy-3-(3-(6-hydroxy-6-methylheptyl)phenyl)-9-methyldec-2-enyliden)-4-methylenecyclohexane-1,3-diol]",,,,,35,,,,69,,,,
8,,,2.95,does not produce hypercalcemia,"C=C1/C(=C\C=C\c2cc(CCCCCC(C)(C)O)cc(CCCCCC(C)(C)O)c2)C[C@@H](O)C[C@@H]1O [PG-433, (1R,3S,Z)-5-((E)-3-(3.5-(6-hydroxy-6-methylheptyl)phenyl)allyliden)-4-methylenecyclohexane-1,3-diol]",,,,,67,,,,69,,,,
